Key:
Type in all cases: cell-based
[1] = system: Staphylococcus aureus; test: glass slide carrier spray disinfection test, Staphylococcus aureus; conditions: 75 ppm antimicrobial agent, no polyethertriamine; 10 minutes contact time
Protocol: (§1) In this example, Pseudomonas aeruginosa or Staphylococcus aureus were dried on glass slides and then sprayed with disinfectant compositions prepared according to the present disclosure. The organism load on the slide was controlled between 5 and 6 log 10 (equals to 10^5 to 10^6 organisms). The spray bottle containing the disinfectant was placed 4 inches away from the carrier and five sprays were applied. After 10 minutes contact time, the carriers are aseptically transferred to 20 ml of letheen broth (neutralizer/growth media). These letheen broth tubes with the carriers are then incubated at 37±1 °C for 48 hours. After 48 hours, a cloudy letheen tube indicates growth or failure and a clear tube indicates no growth or pass.
(§2) The polyethertriamine used was JEFFAMINE T403 polyetheramine obtained from Huntsman Corporation of Houston, Texas.
(§3) In the example below, the alkyl dimethyl benzyl ammonium chloride contained a mixture of 50% by weight C14, 10% by weight C16, and 40% by weight C12 dimethyl benzyl ammonium chloride.
(§4) In the table below, PHMB stands for polyhexamethylene biguanide.

[2] = system: Pseudomonas aeruginosa; test: glass slide carrier spray disinfection test, Pseudomonas aeruginosa; conditions: 75 ppm antimicrobial agent, no polyethertriamine; 10 minutes contact time
Protocol: as §1, §2, §3, §4

[3] = system: Pseudomonas aeruginosa (ATCC 15442); test: EN1276 suspension test, dirty condition, 5 minutes; conditions: for Log Reduction: no polyethertriamine, with 5.00 disodium cocoamphodiproprionate, 15.00 isopropyl alcohol, 5 minutes
Protocol: In particular, varying amounts of para-chloro-metal-xylenol (PCMX) were combined and tested with and without different adjuvants of the present disclosure.
In this example, the same polyethertriamine described in Example No. 1 was used. The disodium cocoamphodiproprionate used was Amphoterge® K-2 obtained from Arxada AG. The methylglycinediacetic acid used was Trilon® M obtained from BASF Corporation.
In tables 9 and 10, antimicrobial efficacy was evaluated according to the EU Standard EN1276 method against Pseudomonas aeruginosa (ATCC 15442) for a contact time of 5 minutes in dirty condition. Test compounds were diluted in hardwater with a total hardness of 375 ppm as CaCo3 pursuant to the Organization for Economic Co-operation and Development (OECD) and used within 2 hours of preparation. The test inoculum was adjusted to the concentration of 1.5-5×10^8 colony forming units (CFU) in Tryptone Sodium Chloride buffer (TSC, 1.0 g tryptone, 8.5 g NaCl, 1 L H2O). For the challenge test, 1 ml of the test inocula was mixed with 1 ml of Bovine Serum Albumin (final concentration 3 g/L) and held for 2 minutes before it was exposed to 8 mL of test compound. The test suspension was then mixed and held for the contact time of 5 minutes at 20±1 °C. At the end of the exposure time, 1 ml of the test mixture was transferred to a tube containing 9 ml neutralizing solution and held for 5 minutes before it was serially diluted and plated onto TSA plates. The plates were incubated at 37 °C for 48 hours before the numbers of CFU per ml in the test suspensions relative to the controls were calculated. Test and control procedures were performed in duplicate and carried out in parallel with the neutralization validation controls, as described in the standard.

[4] = system: Pseudomonas aeruginosa; test: modified EN 1040 suspension test, Pseudomonas aeruginosa; conditions: 1.25 ppm antimicrobial agent, 60 seconds
Source text: (§5) In particular, various antimicrobial agents and mixtures were combined and tested with and without the adjuvant of the present disclosure.
(§6) In this example, the same polyethertriamine described in Example No. 1 was used. In addition, the alkyl dimethyl benzyl ammonium chloride was the same mix as described in Example No. 1. The alkyl dimethyl ammonium chloride mix used in the samples below contained 40% by weight of octyl decyl dimethyl ammonium chloride, 16% by weight dioctyl dimethyl ammonium chloride, and 24% by weight of didecyl dimethyl ammonium chloride.
(§7) The modified EN 1040 suspension test was used to determine the efficacy of the test systems. The testing was performed for a contact time of 60 seconds in comparison to an identical composition not containing the adjuvant but containing the antimicrobial agent at the same concentration. Bacteria were stored at −80 °C using Microbank™ beads (Prolab diagnostics). Cultures were prepared in 250 mL baffled shake flasks with 25 mL of Tryptic Soy Broth (TSB) using one bead. After 18+/−8 hours incubation at 37 °C and 150 rpm, the inocula are prepared for the test.
(§8) The inocula were prepared by diluting the bacteria to 2.5×10^6 CFU/mL in phosphate buffered saline (PBS). Test compounds are prepared in DI water. Three levels of each test compound were prepared by serial two-fold dilution in the same hardwater. For each biological repetition, the test compounds were tested at 3 levels in quadruplicate with one quadruplicate control with no test compound.
The varying compositions were then mixed with the inocula in an 80:20 (test composition: inocula) ratio. After 60 seconds, the test composition/inocula mixture was neutralized by a 10-fold dilution in Letheen broth. After neutralization of the test composition/inocula mixture, five more 10-fold dilutions were made. The six dilutions were incubated at 35 °C for 24 h+/−1 h. Neutralization was verified separately.
(§9) The average log reduction was calculated using the six dilutions.
Various different formulations were tested against Klebsiella pneumoniae and Pseudomonas aeruginosa. The antimicrobial concentrations were tested at 5 ppm, 2.5 ppm, and 1.25 ppm. The antimicrobial blends were mixed at the indicated ratios by weight percent. The formulations were tested with and without the polyethertriamine (PEA). The polyethertriamine was added at weight ratios of 20:1, 40:1, 80:1, and 200:1 with respect to the antimicrobial agent(s). The average log reduction was recorded in addition to the difference in log reduction between the formulation containing the polyethertriamine and the formulation not containing the polyethertriamine.

[5] = system: Klebsiella pneumoniae; test: modified EN 1040 suspension test, Klebsiella pneumoniae; conditions: 1.25 ppm antimicrobial agent, 60 seconds
Source text: as §5, §6, §7, §8
The varying compositions were then mixed with the inocula in an 80:20 (test composition: inocula) ratio. After 60 seconds, the test composition/inocula mixture was neutralized by a 10-fold dilution in Letheen broth. […]
as §9
Various different formulations were tested against Klebsiella pneumoniae and Pseudomonas aeruginosa. […] The average log reduction was recorded in addition to the difference in log reduction between the formulation containing the polyethertriamine and the formulation not containing the polyethertriamine.

Row | Structure (SMILES) | # Fails out of 10 [1] | # Fails out of 10 [2] | Log Reduction ([3]; 0.50% para-chloro-meta-xylenol, 1:5 dilution (1000 ppm)) | Log Reduction ([3]; 1.00% para-chloro-meta-xylenol, 1:5 dilution (2000 ppm)) | performance in presence of the adjuvants ([3]; Example No. 3) | Average Log Kill ([4]; 0 ppm PEA) | Delta Log Kill ([4]; 100 ppm PEA vs 0) | Average Log Kill ([4]; 100 ppm PEA) | Delta Log Kill ([4]; 250 ppm PEA vs 0) | Average Log Kill ([4]; 250 ppm PEA) | Average Log Kill ([5]; 0 ppm PEA) | Delta Log Kill ([5]; 250 ppm PEA vs 0) | Average Log Kill ([5]; 250 ppm PEA)
1 | N=C(NCCCCCCNC(=N)NC(=N)Nc1ccc(Cl)cc1)NC(=N)Nc1ccc(Cl)cc1 [Chlorohexidine] | 10 out of 10 | 10 out of 10 |  |  |  |  |  |  |  |  |  |  | 
2 | Cc1cc(O)cc(C)c1Cl [Para-chloro-meta-xylenol, 4-chloro-3,5-dimethylphenol] |  |  | 0.83 log | 2.56 log | dramatically improved the performance |  |  |  |  |  |  |  | 
3 | CCCCCCCCCC[N+](C)(C)CCCCCCCCCC.[Cl-] [didecyl dimethyl ammonium chloride] | 1 out of 10 | 9 out of 10 |  |  |  | 1.58 log | 0.92 log | 2.50 log | 0.29 log | 1.88 log | 0.46 log | 1.38 log | 1.83 log

— patent US20260375094A1, “Disinfectant Compositions” (ARXADA, LLC, priority 2022, published 2026)
